Measurements from publication PMC11796312, “Multifunctional, Fluorene‐Based Modulator of Cholinergic and GABAergic Neurotransmission as a Novel Drug Candidate for Palliative Treatment of Alzheimer's Disease” (Angewandte Chemie (International Ed. in English), 2024).

Assays:
mGAT2 = target: T1, mGAT2 (Mus musculus, UniProt P31651); experiment: [3H]GABA uptake assay, mGAT2; type: cell-based; settings: GABA uptake assay; read-out: mGAT2 IC50
T1 sequence (P31651 1-614): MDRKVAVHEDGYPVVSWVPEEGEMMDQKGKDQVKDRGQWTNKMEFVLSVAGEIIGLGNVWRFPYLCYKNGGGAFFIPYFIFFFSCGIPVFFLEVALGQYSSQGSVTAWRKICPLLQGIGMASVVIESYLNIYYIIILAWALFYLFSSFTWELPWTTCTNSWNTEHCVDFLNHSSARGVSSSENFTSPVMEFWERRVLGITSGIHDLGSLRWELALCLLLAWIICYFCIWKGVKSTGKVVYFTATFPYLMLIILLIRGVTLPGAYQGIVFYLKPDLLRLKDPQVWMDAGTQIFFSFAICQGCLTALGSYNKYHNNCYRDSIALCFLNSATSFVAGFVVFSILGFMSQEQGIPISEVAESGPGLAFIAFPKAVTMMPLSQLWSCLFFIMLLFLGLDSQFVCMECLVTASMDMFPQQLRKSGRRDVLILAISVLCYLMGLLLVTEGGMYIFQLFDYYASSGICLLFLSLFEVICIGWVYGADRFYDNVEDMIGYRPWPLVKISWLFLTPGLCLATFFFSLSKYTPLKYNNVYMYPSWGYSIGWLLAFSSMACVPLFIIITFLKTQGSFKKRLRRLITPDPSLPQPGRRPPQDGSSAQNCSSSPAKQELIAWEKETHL

eqBuChE = target: T2, eqBuChE (Equus caballus, UniProt P81908); experiment: biochemical; settings: means±SEM of at least three experiments
T2 construct: purchased Sigma-Aldrich

eeAChE = target: T3, eeAChE (Electrophorus electricus, UniProt O42275); experiment: Cholinesterase inhibition, Ellman's protocol, eeAChE; type: biochemical; settings: read-out: eeAChE % inh.
T3 construct: purchased Sigma-Aldrich
Protocol: In vitro pharmacological assays.
The in vitro inhibitory activity toward cholinesterases (eeAChE, eqBuChE,
The target compounds were tested for their inhibitory potency against cholinesterases using
Ellman’s protocol[32] modified for 96-well microplates.
The stock solutions of the
target compounds were prepared in DMSO and diluted with water, giving the desired final
concentrations. The enzymes were prepared as 5 U/mL aqueous stock solutions and diluted
(AChE or BuChE) were added to the reaction mixture in the wells, containing 25 μL of the
target compound (in case of blank samples – water or water/DMSO mixture), 200 μL of 0.1
M phosphate buffer (pH = 8.0) and 20 μL of 5,5'-dithiobis-(2-nitrobenzoic acid) DTNB
All those reagents were preincubated for 5 min at 25 °C for the reactions with the
animal enzymes (eeAChE or eqBuChe) and 36 °C for the human enzyme ( hBuChE) tests. The
enzymatic reaction was initiated by the addition of 20 μL of substrate acetylthiocholine iodide
using the EnSpire multimode microplate reader (PerkinElmer, Waltham, MA, USA). Target
compounds were tested at the screening concentrations of 10 μM or 1 µM for inhibitory
potencies towards animal cholinesterases or human enzyme, respectively. Percent of enzyme
inhibition was calculated based on the formula 100 -(S/B)x100, where S and B were the
respective enzyme activities with and without the test compound, respectively. Compounds
with the enzyme inhibitory activities at 10 μM better than 50% ( eeAChE or eqBuChe) and at
were based on the absorbance measured at seven different inhibitor concentrations, then
percentages of enzymes’ inhibition were plotted against the applied inhibitor concentrations
using nonlinear regression (GraphPad Prism 9; GraphPad Software, San Diego, CA, USA).
All the experiments were performed in
a %inh. at an inhibitor concentration of 10 µM

mGAT3 = target: T4, mGAT3 (Mus musculus, UniProt P31649); experiment: [3H]GABA uptake assay, mGAT3; type: cell-based; settings: GABA uptake assay; read-out: mGAT3 IC50
T4 sequence (P31649 1-602): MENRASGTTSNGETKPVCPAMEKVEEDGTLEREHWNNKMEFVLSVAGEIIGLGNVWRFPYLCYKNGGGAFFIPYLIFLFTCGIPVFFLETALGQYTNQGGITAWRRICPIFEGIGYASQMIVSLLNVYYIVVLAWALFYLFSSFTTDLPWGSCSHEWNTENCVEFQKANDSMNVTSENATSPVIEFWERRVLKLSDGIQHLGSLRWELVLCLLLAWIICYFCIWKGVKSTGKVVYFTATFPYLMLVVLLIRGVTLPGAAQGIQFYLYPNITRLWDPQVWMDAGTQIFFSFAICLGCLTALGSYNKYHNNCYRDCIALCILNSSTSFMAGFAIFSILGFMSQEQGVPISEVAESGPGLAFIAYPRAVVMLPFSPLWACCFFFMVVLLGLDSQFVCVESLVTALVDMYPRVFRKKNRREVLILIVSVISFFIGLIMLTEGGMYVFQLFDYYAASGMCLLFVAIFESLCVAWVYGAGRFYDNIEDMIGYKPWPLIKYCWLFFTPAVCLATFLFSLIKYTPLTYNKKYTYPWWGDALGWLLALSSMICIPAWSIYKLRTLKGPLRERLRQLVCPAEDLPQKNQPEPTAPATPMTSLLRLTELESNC

[1] = target: T5, human butyrylcholinesterase (hBuChE) (Homo sapiens, UniProt P06276); experiment: biochemical; settings: inhibitor concentration 1 μM; read-out: hBuChE % inh.
T5 construct: from human plasma was from Vivonics (Bedford, MA, USA); purchased Vivonics (Bedford, MA, USA); host or cells: human plasma

mGAT1 [2] = target: T6, mGAT1 (Mus musculus, UniProt P31648); experiment: MS Binding Assay with NO 711 as marker; settings: 100 μM inhibitor
mGAT1 [3] = target: T6, mGAT1; experiment: [3H]GABA uptake assay, mGAT1; type: cell-based; settings: GABA uptake assay; read-out: mGAT1 IC50
[4] = target: T7, human serotonin 5-HT6 receptor (Homo sapiens, UniProt P50406); experiment: cAMP 5-HT6 functional assay; type: cell-based; settings: % of maximal antagonist response (SB258585 10^-5M); 22 nM serotonin
T7 construct: host or cells: 1321N1
Protocol: Functional assays for 5-HT6 receptor
Test compounds were dissolved in dimethyl sulfoxide (DMSO) at a concentration of 10 mM.
Serial dilutions were prepared in a 96-well microplate in assay buffer, and 8 concentrations
were tested. For the 5-HT6, adenylyl cyclase activity was monitored using cryopreserved
cells were resuspended in stimulation buffer (HBSS, 5 mM HEPES, 0.5 IBMX, and 0.1%
BSA at pH 7.4) at 2x10^5 cells/ml. The same volume (10 μl) of cell suspension was added to
the tested compounds. Samples were loaded onto a white opaque half-area 96-well
reference agonist for the 5-HT6 receptor. The agonist and antagonist were added
simultaneously. Cell stimulation was performed for 30 minutes at room temperature. After
incubation, cAMP measurements were performed with homogeneous TR-FRET immunoassay
using the LANCE Ultra cAMP kit (PerkinElmer, USA). The volume of 10 μl of EucAMP
Tracer Working Solution and 10 μl of ULight-anti-cAMP Tracer Working Solution were
added, mixed, and incubated for 1 h. The TR-FRET signal was read on an EnVision
microplate reader (PerkinElmer, USA). IC 50 and EC 50 were determined by nonlinear
regression analysis using GraphPad Prism 9.0 software.

SH-SY5Y cells [5] = experiment: Intracellular RONS, DCFH-DA probe, SH-SY5Y; type: cell-based, human
SIM-A9 cells [6] = experiment: LC-MS determination of total MDA, SIM-A9; type: cell-based, mouse
SIM-A9 cells [7] = experiment: Intracellular O2•-, DHE probe, SIM-A9; type: cell-based, mouse
SH-SY5Y cells [8] = experiment: Intracellular O2•-, DHE probe, SH-SY5Y; type: cell-based, human
[9] = test system: mouse microglial cells SIM-A9; experiment: MTT cell viability assay, SIM-A9; type: cell-based; settings: SIM-A9, 24 h; read-out: IC50 (MTT) ± SEM
Excerpt: (§1) Human neuroblastoma cells SH-SY5Y and mouse microglial cells SIM-A9 were used to evaluate cell viability, intracellular RONS, and malondialdehyde (MDA; CAS No. 542–78-9).
(§2) SH-SY5y cells were cultivated in Dulbecco's modified Eagle's medium (DMEM; Biosera, Nuaille, France) supplemented with 10% fetal bovine serum (Biosera) and 1% penicillin-streptomycin antibiotic solution (Sigma-Aldrich, St. Louis, MO, USA). The culture medium for SIM-A9 cells was further supplemented with donor horse serum (Biosera). The cells were incubated at 37 °C in a CO2 incubator (BINDER CO2 incubator CB 160, Tuttlingen, Germany) and routinely passaged by trypsinization at 75 –85% confluence.
(§3) Colorimetric Cell Viability Assay
(§4) The toxicological indices IC 50 used in the present study were measured utilizing 3-(4,5-dimethylthiazol-2-yl)-2,5-diphenyl-tetrazolium bromide (MTT) reduction assay after (1 picture or pasted object on this page, not shown here)
(§5) 24 h incubation with tested compounds. […]
(§6) incubation, the cultivation medium containing serially diluted substances was aspirated and replaced with a fresh medium containing MTT at a concentration of 0.5 mg/mL and subsequently incubated at 37 °C for 1 h. […] Cell viability was assessed spectrophotometrically by the amount of formazan produced. Absorbance was measured at 570 nm with 650 nm reference wavelength on Spark (Tecan Group Ltd, Switzerland). […]

[10] = test system: Human neuroblastoma cells SH-SY5Y; experiment: MTT cell viability assay, SH-SY5Y; type: cell-based; settings: 24 h, read-out: IC50 (MTT) ± SEM
Excerpt: as §1, §2, §3, §4, §5, §6

SIM-A9 cells [11] = experiment: Intracellular RONS, DCFH-DA probe, SIM-A9; type: cell-based, mouse
SH-SY5Y cells [12] = experiment: LC-MS determination of total MDA, SH-SY5Y; type: cell-based, human

T5 sequence (P06276 29-602): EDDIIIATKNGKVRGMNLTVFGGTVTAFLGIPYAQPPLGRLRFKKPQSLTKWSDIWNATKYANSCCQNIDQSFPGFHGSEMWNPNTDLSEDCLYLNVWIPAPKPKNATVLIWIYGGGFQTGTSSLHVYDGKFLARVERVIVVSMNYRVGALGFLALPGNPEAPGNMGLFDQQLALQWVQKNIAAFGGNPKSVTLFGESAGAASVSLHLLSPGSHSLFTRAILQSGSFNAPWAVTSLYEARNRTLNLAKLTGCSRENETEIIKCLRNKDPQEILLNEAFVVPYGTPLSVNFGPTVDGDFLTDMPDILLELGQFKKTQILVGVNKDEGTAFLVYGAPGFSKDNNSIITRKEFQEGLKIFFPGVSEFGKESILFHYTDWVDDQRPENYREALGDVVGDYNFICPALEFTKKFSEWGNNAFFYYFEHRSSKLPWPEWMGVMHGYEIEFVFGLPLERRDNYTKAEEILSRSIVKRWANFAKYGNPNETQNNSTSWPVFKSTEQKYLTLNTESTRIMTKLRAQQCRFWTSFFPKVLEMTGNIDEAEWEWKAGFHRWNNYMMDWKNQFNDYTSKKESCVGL
T3 sequence (O42275 24-633): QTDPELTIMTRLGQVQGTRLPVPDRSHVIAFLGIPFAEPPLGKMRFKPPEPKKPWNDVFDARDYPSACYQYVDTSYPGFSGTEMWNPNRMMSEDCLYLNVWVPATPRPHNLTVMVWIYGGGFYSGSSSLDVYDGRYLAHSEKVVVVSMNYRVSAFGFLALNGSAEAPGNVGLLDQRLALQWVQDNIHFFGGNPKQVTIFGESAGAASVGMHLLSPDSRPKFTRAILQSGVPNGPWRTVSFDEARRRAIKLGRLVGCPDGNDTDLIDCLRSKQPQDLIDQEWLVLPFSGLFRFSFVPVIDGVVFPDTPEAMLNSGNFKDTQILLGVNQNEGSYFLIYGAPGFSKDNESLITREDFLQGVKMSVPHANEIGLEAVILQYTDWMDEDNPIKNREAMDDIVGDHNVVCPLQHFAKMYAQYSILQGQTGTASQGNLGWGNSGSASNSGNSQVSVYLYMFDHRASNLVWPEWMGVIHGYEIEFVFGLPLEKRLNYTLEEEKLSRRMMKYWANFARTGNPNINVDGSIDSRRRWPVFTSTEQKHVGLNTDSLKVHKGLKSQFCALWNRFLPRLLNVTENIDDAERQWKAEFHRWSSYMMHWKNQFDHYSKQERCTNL
T2 sequence (P81908 whole entry): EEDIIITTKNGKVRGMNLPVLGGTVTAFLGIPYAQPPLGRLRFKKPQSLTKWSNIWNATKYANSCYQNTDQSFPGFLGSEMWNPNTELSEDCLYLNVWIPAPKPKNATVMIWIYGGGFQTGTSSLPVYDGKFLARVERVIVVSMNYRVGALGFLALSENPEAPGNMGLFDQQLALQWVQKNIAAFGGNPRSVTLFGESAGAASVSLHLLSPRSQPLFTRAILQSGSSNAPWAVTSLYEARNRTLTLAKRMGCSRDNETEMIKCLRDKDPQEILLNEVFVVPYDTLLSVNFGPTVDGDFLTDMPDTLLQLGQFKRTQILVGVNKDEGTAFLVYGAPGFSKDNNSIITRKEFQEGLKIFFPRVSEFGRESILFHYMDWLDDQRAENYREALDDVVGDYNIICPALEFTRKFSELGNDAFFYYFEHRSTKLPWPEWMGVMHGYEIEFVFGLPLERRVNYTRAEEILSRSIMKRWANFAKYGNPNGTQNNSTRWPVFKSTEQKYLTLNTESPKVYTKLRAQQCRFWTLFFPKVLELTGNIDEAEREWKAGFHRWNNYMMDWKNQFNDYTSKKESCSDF
T7 sequence (P50406 whole entry): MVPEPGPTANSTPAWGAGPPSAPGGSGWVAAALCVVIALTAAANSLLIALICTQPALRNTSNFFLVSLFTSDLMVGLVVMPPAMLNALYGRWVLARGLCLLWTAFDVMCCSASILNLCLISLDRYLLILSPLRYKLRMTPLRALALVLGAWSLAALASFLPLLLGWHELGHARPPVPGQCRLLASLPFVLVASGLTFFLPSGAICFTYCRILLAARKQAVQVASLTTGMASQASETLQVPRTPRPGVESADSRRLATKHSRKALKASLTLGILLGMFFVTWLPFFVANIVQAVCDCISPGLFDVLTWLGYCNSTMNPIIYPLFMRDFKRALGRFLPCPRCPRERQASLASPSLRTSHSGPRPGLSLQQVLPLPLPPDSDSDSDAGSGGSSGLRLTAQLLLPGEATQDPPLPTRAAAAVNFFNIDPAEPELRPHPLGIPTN

CC(C)(C)c1cccc(CNC[C@@H](O)[C@H](Cc2ccccc2)NC2c3ccccc3-c3ccccc32)c1 [Compound 4]
IC50 (mGAT2): 26.3 µM | IC50 (eqBuChE): 0.69 ± 0.04 µM | inhibition at 10 µM (eeAChE): < 10% | IC50 (mGAT3): 8.91 ± 1.03 µM | inhibition at 1 µM [1]: 68% | percent of remaining NO711 binding, mGAT1 (mGAT1 [2]): 91% | IC50 (mGAT1 [3]): 14.8 µM

O[C@@H](CNCC1CCCCC1)[C@H](Cc1ccccc1)NC1c2ccccc2-c2ccccc21 [Compound 5]
IC50 (mGAT2): 10.7 µM | IC50 (eqBuChE): 0.96 ± 0.03 µM | inhibition at 10 µM (eeAChE): 19.9% | IC50 (mGAT3): 11.5 µM | inhibition at 1 µM [1]: 76.5% | percent of remaining NO711 binding, mGAT1 (mGAT1 [2]): 72%

COc1ccc(NS(=O)(=O)c2ccc(I)cc2)cc1N1CCN(C)CC1 [SB258585, reference compound]
5-HT6 antagonist mode E max % [4]: 100%

CC(C)(C)OO [tBHP]
intracellular RONS, fold vs untreated control (SH-SY5Y cells [5]; conc. = IC50, 1 h): 1.25 fold | intracellular RONS, fold vs untreated control (SH-SY5Y cells [5]; conc. = IC50, 4 h): 1.11 fold | intracellular RONS change (SH-SY5Y cells [5]; conc. = IC50, 24 h): decrease of RONS | intracellular RONS, fold higher (SH-SY5Y cells [5]; conc. = ½ IC50, 1 h): 1.12 fold | MDA level, times higher (SIM-A9 cells [6]; IC50, 4 h): 1.27 fold | MDA level, fold higher (SIM-A9 cells [6]; IC50, 24 h): 1.45 fold | MDA level, times higher (SIM-A9 cells [6]; highest concentration (IC50), 1 h): 1.18 fold | MDA level, times higher (SIM-A9 cells [6]; ¼ IC50, 4 h): 1.16 fold | MDA level, times higher (SIM-A9 cells [6]; ½ IC50, 4 h): 1.18 fold | MDA level, fold higher (SIM-A9 cells [6]; ½ IC50, 24 h): 1.15 fold | intracellular O2•-, times higher (SIM-A9 cells [7]; IC50, 1 h): 1.11 fold | intracellular O2•-, times higher (SIM-A9 cells [7]; IC50, 4 h): 1.10 fold | intracellular O2•-, times higher (SIM-A9 cells [7]; IC50, 24 h): 1.25 fold | intracellular O2•-, fold higher (SIM-A9 cells [7]; ¼ IC50, 24 h): 1.27 fold | intracellular O2•-, times higher (SIM-A9 cells [7]; ½ IC50, 1 h): 1.10 fold | intracellular O2•-, times higher (SIM-A9 cells [7]; ½ IC50, 4 h): 1.10 fold | intracellular O2•-, times higher (SIM-A9 cells [7]; ½ IC50, 24 h): 1.32 fold | intracellular O2•-, times higher (SH-SY5Y cells [8]; IC50, 1 h): 1.25 fold | intracellular O2•-, times higher (SH-SY5Y cells [8]; IC50, 4 h): 1.23 fold | intracellular O2•-, fold higher (SH-SY5Y cells [8]; IC50, 24 h): 1.11 fold | intracellular O2•-, times higher (SH-SY5Y cells [8]; ¼ IC50, 1 h): 1.10 fold | intracellular O2•-, times higher (SH-SY5Y cells [8]; ¼ IC50, 4 h): 1.10 fold | intracellular O2•-, times higher (SH-SY5Y cells [8]; ½ IC50, 1 h): 1.22 fold | intracellular O2•-, times higher (SH-SY5Y cells [8]; ½ IC50, 4 h): 1.16 fold | intracellular O2•-, fold higher (SH-SY5Y cells [8]; ½ IC50, 24 h): 1.10 fold | IC50 [9]: 60.4 ± 3.54 µM | IC50 [10]: 19.9 ± 1.35 µM | intracellular RONS, times higher (SIM-A9 cells [11]; conc. = IC50, 1 h): 1.21 fold | intracellular RONS, times lower (SIM-A9 cells [11]; conc. = IC50, 24 h): 1.30 fold | MDA level, times higher (SH-SY5Y cells [12]; IC50, 1 h): 1.45 fold | MDA level, fold higher (SH-SY5Y cells [12]; IC50, 4 h): 1.45 fold | MDA level, times higher (SH-SY5Y cells [12]; IC50, 24 h): 1.61 fold | MDA level, times higher (SH-SY5Y cells [12]; ¼ IC50, 1 h): 1.23 fold | MDA level, times higher (SH-SY5Y cells [12]; ¼ IC50, 24 h): 1.11 fold | MDA level, times higher (SH-SY5Y cells [12]; ½ IC50, 1 h): 1.18 fold | MDA level, fold higher (SH-SY5Y cells [12]; ½ IC50, 4 h): 1.18 fold | MDA level, times higher (SH-SY5Y cells [12]; ½ IC50, 24 h): 1.20 fold
